Measurements published in patent US12594255B2, “Lipids with odd number of carbon atoms and their use as pharmaceutical composition or nutritional supplement” (SunRegen Healthcare AG, priority 2016, dated 2026).
Several values for one entry are separate records, joined by “and”; a condition that tells them apart may be missing. Identical values can stand only once.

How the values were obtained:
[1] = system: mouse primary cortical neurons challenged with camptothecin; experiment: Camptothecin-induced neuronal death, test item added 48 hours before camptothecin; format: cell-based; conditions: for neuroprotective and anti-apoptotic effects: 48 h before 1 μM camptothecin; for cell viability: 48 h before 1 μM camptothecin 24 h
Procedure: Mouse primary neurons were incubated with vehicle or toxins in the absence or presence of different concentrations of compound C added 48 hours before toxin's challenge. After the addition of toxins, cells were further incubated for 24 h.
Mouse primary neurons were incubated with vehicle or toxins in the absence or presence of different concentrations of Herb B added 48 hours before camptothecin's challenge. After the addition of Camptothecin, cells were further incubated for 24 h. Data are represented as % of vehicle control (Mean±SD).
The neuro-protective effects of different concentrations of compound C was investigated using mouse primary cortical neurons challenged with camptothecin, which is a cytotoxic quinoline alkaloid which inhibits the DNA enzyme topoisomerase I (topo I).
Mouse primary neurons were incubated with vehicle or toxins in the absence or presence of different concentrations of compound C added 48 hours before toxin's challenge. After the addition of 1 μM camptothecin, cells were further incubated for 24 h in a final volume of 140 μL per well.
Cells were incubated with vehicle or toxins (at the indicated final concentrations described in plate-layout below) in the absence or presence of different concentrations of compound C added 48 hours before toxin's challenge. After the addition of 1 μM camptothecin, cells were further incubated for 24 h in a final volume of 140 μL per well.

[2] = Cell viability of neurons pre-incubated 48 h with test item only (no AβO), MTT assay; format: cell-based; conditions: C57BL6/J, mouse, mouse primary cortical neurons, 1 nM compound C only, 48 h pre-incubation
Procedure: Mouse primary cortical neurons were pre-incubated for 48 h with vehicle, 0.05 μM DHA (used as positive control) or different concentrations of Compound C. Then, cortical neurons were treated for 24 h with vehicle (FIG. 1 left) or 1 μM AβO (FIG. 2 right) and cell viability was determined using the MTT assay (n=3 determinations per condition, 1 independent experiment), Data are represented as % of vehicle control (Mean*SD).
Mouse primary cortical neurons were pre-incubated for 48 h with vehicle, 0.05 μM DHA (used as positive control) or different concentrations of Herb B Extracts. Then, cortical neurons were treated for 24 h with vehicle (FIG. 10 left) or 1 μM AβO (FIG. 11 right) and cell viability was determined using the MTT assay (n=3 determinations per condition, 1 independent experiment), Data are represented as % of vehicle control (Mean±SD).
Cortical neurons from embryonic day 16-17 are prepared from C57BL6/J mouse fetuses. In brief, dissociated cortical cells were plated (50.000 cells/well) in 48-well plates pre-coated with 1.5 μg/mL polyornithine (Sigma). […] The AβO-induced neurotoxicity was evaluated using the MTT assay.
Cortical neurons from embryonic day 16-17 are prepared from C57BL6/J mouse fetuses. […] The AβO-induced neurotoxicity was evaluated using the MTT assay. […]

[3] = system: patients suffered from incurable diseases; experiment: Case reports of patients eating functional food containing SBC003; format: in vivo, human
Excerpt: Compound C (tripentadecanoin) is a natural lipid which can be found in specific herbs, but can also be found in human/animal milk. The patients described in examples II suffered from incurable diseases without any efficient treatment have voluntarily requested the functional food which containing SBC003.

[4] = Solubility of compound C in stock solutions; format: physicochemical

Q: With `CCCCCCCCCCCCCCC(=O)OCC(COC(=O)CCCCCCCCCCCCCC)OC(=O)CCCCCCCCCCCCCC` [Compound C, tripentadecanoin] as the compound, how does the “neuroprotective and anti-apoptotic effects” value ([1]; 10 nM) read?
A: Its value is 37.3%.

Q: And the cell viability ([1]; 10 nM)?
A: Its cell viability is 73.5±1.5 % of control.

Q: What about the “neuroprotective and anti-apoptotic effects” value ([1]; 100 nM) of the same compound?
A: The value was 37.2%.

Q: And the cell viability ([1]; 100 nM)?
A: Its cell viability is 73.4±5.9 % of control.

Q: And the viability at 48 h, 0.001 µM [2]?
A: Its viability at 48 h, 0.001 µM is 117 ± 3.7%.

Q: And the “serum creatinine, average level” value ([3]; female, chronic kidney failure, on treatment, before mean 9.21 mg/dl)?
A: Its value is 8.88 mg/dL.

Q: What about the serum creatinine ([3]; female, chronic kidney failure, single values on treatment, before mean 9.21 mg/dl, listed as SBC003) of the same compound?
A: The serum creatinine was 8.88 mg/dL and 8.97 mg/dL and 8.55 mg/dL and 9.12 mg/dL.

Q: And the “time breathing by themself” value ([3]; person, ALS, ventilator, functional food containing SBC003 about 10 mg/day, about one month, before at the most 30 mins/day)?
A: The value was “about 55 mins/day”.

Q: And the “Parkinson's symptoms” value ([3]; person, Parkinson's disease, functional food containing SBC003 about 10 mg/day, after about one week)?
A: Its value is “abnormal shaking in feet improved”.

Q: What about the symptoms of asthma ([3]; person, asthma about 20 years, about 5 mg/time for about few times) of the same compound?
A: Its symptoms of asthma is “greatly improved”.

Q: What about the asthma symptoms ([3]; person, asthma about 29 years, functional food containing SBC003 about 5 mg for one or two time) of the same compound?
A: Its asthma symptoms is “symptoms greatly improved”.

Q: And the “facial expression / communication” value ([3]; person, cerebellar atrophy, functional food containing SBC003 about 10 mg/day, after about one month)?
A: The value was “started to smile”.

Q: And the “urine volume once per day” value ([3]; person, chronic kidney failure, haemodialysis, no urine before, about 10 to 25 mg/day for about 1 month, after about 2 months)?
A: Its value is 10 mL.

Q: What about the “urine total volume per day” value ([3]; person, chronic kidney failure, after increasing to 50-100 mg/day for about 2-3 months) of the same compound?
A: Its value is “about 50 ml per day”.

Q: And the blood glucose level ([3]; person, chronic kidney failure, on treatment, prior to the treatment 130-180 mg/dl)?
A: The blood glucose level was 70 to 105 mg/dL.

Q: And the “vision (patient-reported)” value ([3]; person, optic atrophy, blind, functional food containing SBC003 about 7 mg/day for 7 days, after about one month)?
A: Its value is “brighter and better vision”.

Q: What about the sitting time ([3]; person, spinal fractures, about 20 mg/day, about 10 days, before only 1 hour/time) of the same compound?
A: Its sitting time is “up to 2 hours”.

Q: What about the remaining lumbar pains ([3]; person, spinal fractures, functional food containing SBC003 about 20 mg/day, about 10 days) of the same compound?
A: Its remaining lumbar pains is 40 % of the pains before taking SBC003.

Q: And the “solubility in stock solutions” value [4]?
A: The value was “not fully soluble”.
